According to US20040092561A1, “Azolidinone-vinyl fused -benzene derivatives” (priority 2002, published 2004):

Columns and labels:
PI3Kγ = PI3Kγ (Homo sapiens, UniProt P48736); assay: High Throughput PI3K Lipid Kinase Assay (Binding Assay), SPA with neomycin-coated beads; format: biochemical; conditions: Human recombinant GST-PI3Kγ; [33P]γ-ATP; 180 minutes, room temperature
Description: a) High Throughput PI3K Lipid Kinase Assay (Binding Assay)
The assay combines the scintillation proximity assay technology (SPA, Amersham) with the capacity of neomycin (a polycationic antibiotic) to bind phospholipids with high affinity and specificity. The Scintillation Proximity Assay is based on the properties of weakly emitting isotopes (such as ^3H, ^125I, ^33P). Coating SPA beads with neomycin allows the detection of phosphorylated lipid substrates after incubation with recombinant PI3K and radioactive ATP in the same well, by capturing the radioactive phospholipids to the SPA beads through their specific binding to neomycin.
To a 384 wells MTP containing 5 μl of a chemical compound library (containing 6% DMSO), the following assay components are added. 1) 5 μl (58 ng) of Human recombinant GST-PI3Kγ (in Hepes 40 mM, pH 7.4, DTT 1 mM and ethylenglycol 5%) 2) 10 μl of lipid micelles and 3) 10 μl of Kinase buffer ([^33P]γ-ATP 45 μM/60 nCi, MgCl2 30 mM, DTT 1 mM, P-Glycerophosphate 1 mM, NaVO4 100 μM, Na Cholate 0.3%, in Hepes 40 mM, pH 7.4). After incubation at room temperature for 180 minutes, with gentle agitation, the reaction is stopped by addition of 60 μl of a solution containing 100 μg of neomycin-coated PVT SPA beads in PBS containing ATP 10 mM and EDTA 5 mM. The assay is further incubated at room temperature for 60 minutes with gentle agitation to allow binding of phospholipids to neomycin-SPA beads. After precipitation of the neomycin-coated PVT SPA beads for 5 minutes at 1500×g, radioactive PtdIns(3)P is quantified by scintillation counting in a Wallac MicroBeta™ plate counter.
The values indicated in respect of PI3K γ refer to the IC50 (μM), i.e. the amount necessary to achieve 50% inhibition of said target. Said values show a considerable potency of the azolidinone-vinyl fused-benzene compounds with regard to PI3Kγ.

[1] = system: Akt/PKB phosphorylation in macrophages; assay: Cell Based ELISA to Monitor PI3K Inhibition: Akt/PKB phosphorylation in Raw 264-7 macrophages after stimulation with C5a; conditions: Mus musculus, RAW264.7, 50 nM C5a, 5 minutes, 20 minutes pretreatment, read-out: inhibition of C5a-mediated AKT-phosphorylation
Description: b) Cell Based ELISA to Monitor PI3K Inhibition
Measurement of Akt/PKB phosphorylation in macrophages after stimulation with C5a: Raw 264: Raw 264-7 macrophages (cultured in DMEM-F12 medium containing 10%
Fetal Calf serum and antibiotics) are plated at 20'000 cells/well in a 96 MTP 24 h before cell stimulation. Previous to the stimulation with 50 nM of Complement 5a during 5 minutes, Cells are serum starved for 2 h, and pretreated with inhibitors for 20 minutes. After stimulation cells are fixed in 4% formaldehyde for 20 minutes and washed 3 times in PBS containing 1% Triton X-100 (PBS/Triton). Endogenous peroxidase is blocked by a 20 minutes incubation in 0.6% H2O2 and 0.1% Sodium Azide in PBS/Triton and washed 3 times in PBS/Triton. Cells are then blocked by 60 minutes incubation with 10% fetal calf serum in PBS/Triton. Next, phosphorylated Akt/PKB is detected by an overnight incubation at 4° C. with first antibody (anti phospho Serine 473 Akt IHC, Cell Signaling) diluted 800-fold in PBS/Triton, containing 5% bovine serum albumin (BSA). After 3 washes in PBS/Triton, cells are incubated for 60 minutes with a peroxidase conjugated goat-anti-rabbit antibody ( 1/400 dilution in PBS/Triton, containing 5% BSA), washed 3 times in PBS/Triton, and 2 times in PBS and further incubated in 100 μl of substrate reagent solution (R&D) for 20 minutes. The reaction is stopped by addition of 50 μI of 1 M SO4H2 and absorbance is read at 450 nm.
The values indicated reflect the percentage of inhibition of AKT phoshorylation as compared to basal level. Said values show a clear effect of the azolidinone-vinyl fused-benzene compounds on the activation of AKT phosphorylation in macrophages.

Sequence of PI3Kγ (P48736 whole entry): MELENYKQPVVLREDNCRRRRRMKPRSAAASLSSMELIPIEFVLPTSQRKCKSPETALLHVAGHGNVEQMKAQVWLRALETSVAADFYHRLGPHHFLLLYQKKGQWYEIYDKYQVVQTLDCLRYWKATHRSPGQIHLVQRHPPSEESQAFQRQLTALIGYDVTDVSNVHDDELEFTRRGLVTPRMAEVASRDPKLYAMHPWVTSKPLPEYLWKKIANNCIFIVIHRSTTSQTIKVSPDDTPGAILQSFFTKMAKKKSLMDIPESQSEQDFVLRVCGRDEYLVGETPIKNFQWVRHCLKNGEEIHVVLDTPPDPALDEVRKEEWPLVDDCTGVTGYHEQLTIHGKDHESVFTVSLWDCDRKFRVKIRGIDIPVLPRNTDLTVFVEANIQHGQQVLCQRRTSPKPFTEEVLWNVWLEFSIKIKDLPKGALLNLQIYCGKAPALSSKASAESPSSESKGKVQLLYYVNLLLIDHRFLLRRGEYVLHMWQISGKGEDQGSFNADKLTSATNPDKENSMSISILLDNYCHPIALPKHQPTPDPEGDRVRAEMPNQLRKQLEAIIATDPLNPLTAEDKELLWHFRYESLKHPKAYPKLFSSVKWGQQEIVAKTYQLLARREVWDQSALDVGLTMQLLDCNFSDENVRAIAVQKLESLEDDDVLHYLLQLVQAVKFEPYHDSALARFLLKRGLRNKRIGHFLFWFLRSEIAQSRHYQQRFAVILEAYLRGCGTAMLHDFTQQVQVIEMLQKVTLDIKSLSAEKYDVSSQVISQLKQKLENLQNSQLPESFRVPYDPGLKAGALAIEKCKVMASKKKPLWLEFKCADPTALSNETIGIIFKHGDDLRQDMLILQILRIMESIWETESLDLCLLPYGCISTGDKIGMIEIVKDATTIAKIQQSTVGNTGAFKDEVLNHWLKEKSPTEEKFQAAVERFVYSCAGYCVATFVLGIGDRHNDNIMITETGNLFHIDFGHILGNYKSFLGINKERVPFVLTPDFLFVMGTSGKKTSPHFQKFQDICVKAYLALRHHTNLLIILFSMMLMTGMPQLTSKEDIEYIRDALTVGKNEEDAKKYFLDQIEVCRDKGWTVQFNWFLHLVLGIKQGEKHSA

In the case of `O=C1NC(=S)S/C1=C/c1ccc2c(c1)OCO2` [Example 2, (5E)-5-(1,3-benzodioxol-5-ylmethylene)-2-thioxo-1,3-thiazolidin-4-one], the IC50 (PI3Kγ) is reported as 60 nM and the inhibition at 10 µM [1] is reported as 80%.
Work on `O=C1NC(=O)/C(=C/c2ccc3c(c2)CCO3)S1` [Example 4, (5Z)-5-(2,3-dihydro-1-benzofuran-5-ylmethylene)-1,3-thiazolidine-2,4-dione] yielded an inhibition at 10 µM [1] of 80%.
With `O=C1NC(=O)/C(=C/c2ccc3c(c2)OCO3)S1` [Example 1, (5Z)-5-(1,3-benzodioxol-5-ylmethylene)-1,3-thiazolidine-2,4-dione] the IC50 (PI3Kγ) was 50 nM and the inhibition at 10 µM [1] was 80%.
Work on `CN1C(=O)COc2ccc(/C=C3\SC(=O)NC3=O)cc21` [Example 10, (5Z)-5-[(4-methyl-3-oxo-3,4-dihydro-2H-1,4-benzoxazin-6-yl)methylene]-1,3-thiazolidine-2,4-dione] yielded an IC50 (PI3Kγ) of 30 nM.
